Values joined by “and” are separate entries in the source; they are usually repeats but may differ in a detail not shown here. Equal entries are not always repeated. Where two headings read alike, the source gives them in different places.
What was measured:
CN1 enzyme = biological target: T1, CN1 enzyme (Homo sapiens, UniProt Q96KN2); assay: In vitro degradation of carnosine, anserine and balenine added to human heparin plasma; type: in vitro ADME; settings: for half-life at 20 µM: human, heparin plasma
T1 construct: Fasted venous heparin plasma was collected from 6 subjects (5 males and 1 female) with a wide range in CN1 enzyme activity; from tissue; host or cells: human venous heparin plasma from 6 volunteers
T1 sequence (Q96KN2 26-507): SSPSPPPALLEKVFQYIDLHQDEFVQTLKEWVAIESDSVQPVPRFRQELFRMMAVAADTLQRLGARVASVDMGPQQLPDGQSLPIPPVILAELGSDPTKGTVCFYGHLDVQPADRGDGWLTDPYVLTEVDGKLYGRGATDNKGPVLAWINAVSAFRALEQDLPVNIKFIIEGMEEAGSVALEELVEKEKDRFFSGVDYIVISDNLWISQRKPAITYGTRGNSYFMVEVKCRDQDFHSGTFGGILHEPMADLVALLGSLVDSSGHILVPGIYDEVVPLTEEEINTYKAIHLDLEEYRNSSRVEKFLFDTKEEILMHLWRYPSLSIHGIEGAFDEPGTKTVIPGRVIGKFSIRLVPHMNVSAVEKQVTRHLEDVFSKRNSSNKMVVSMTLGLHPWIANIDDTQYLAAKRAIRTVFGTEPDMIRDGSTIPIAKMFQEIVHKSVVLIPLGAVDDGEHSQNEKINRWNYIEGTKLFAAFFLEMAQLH
Experimental: Fasted venous heparin plasma was collected from 6 subjects (5 males and 1 female) with a wide range in CN1 enzyme activity (0.32–2.92 µmol/mL/h with a mean value of 1.62 µmol/mL/h). Subjects were asked to refrain from alcohol, meat and fish the day before the sampling. […] On different time points (Table 1), plasma was deproteinized with 1:11 sulfosalicylic acid (SSA, 35% solution) to inhibit further hydrolysis. Samples were centrifuged for 5 min at 16,000 g and supernatant was stored at − 20 °C until further UHPLC-MS/MS analysis.
(§1) Extraction of plasma and urine for UHPLC-MS/MS analysis went as follows: 150 µL of deproteinized plasma/urine (not deproteinized) was added to 215 µL of acetonitrile containing 1% formic acid, 10 µL of internal standard (IS) (carnosine-D4) and 25 µL ultrapure water or standard (calibration curve and quality control samples (QC)). Then samples were vortexed and centrifuged (15 min, 4 °C, 15,000 g). Supernatant was used for further analyses.
(§2) In the in vitro study, supernatant was diluted 40 times before injection. In the PK study, plasma samples from the 10 mg/kg condition and baseline urine samples were diluted 100 times. All other urine samples were diluted 1000 times. Dilutions were conducted with acetonitrile containing 1% formic acid.
(§3) Analyses were performed on a UHPLC-MS/MS platform consisting of an Acquity H-Class Quaternary Solvent Manager and Flow-Through-Needle Sample Manager with temperature controlled tray (8 °C) and column oven (60 °C). Chromatographic separation was achieved on an Acquity UPLC BEH amide column (2.1 mm × 100 mm, 1.7 µm) with an Acquity amide Vanguard pre-column. The system operated at a flow rate of 0.3 mL/min with solvent A (ultrapure water), solvent B (acetonitrile) and solvent C (200 mM ammonium formate with 0.04% ammonia) with the gradient shown in Table 2. The UPLC column effluent was interfaced to a Xevo TQ-XS® MS/MS system (plasma samples) and Xevo TQ-S® (urine samples), equipped with an electrospray ionization (ESI) probe operating in positive ion mode. Further MS settings included desolvation gas flow rate (15 L/h), desolvation temperature (600 °C), cone gas flow rate (800 L/h), source temperature (150 °C) and capillary voltage (0.75 kV). Transition details are depicted in Table 3. […] The detector operated in multiple reacting monitoring mode, scanning the two most intense transitions of the HCDs. Masslynx software 4.2 was used for instrument control and data extraction. Hardware and software were purchased from Waters (Milford, MA, USA).
CN1 activity was quantified by fluorometric determination of histidine following carnosine addition (based on Teufel et al., 2003). The reaction was initiated by adding carnosine to the serum (final concentration of 3.33 mM carnosine) and stopped after 10 min incubation at 37 °C by adding trichloroacetic acid (final concentration of 150 mM TCA). For controls, trichloroacetic acid was added before carnosine. After centrifugation (15 min, 16000 g), 10 µl supernatant was added to 190 µl of an OPA-NaOH mixture (4000 µl incomplete ophtaldehyde, with 0.2% 2-mercaptoethanol, and 15 ml of 4 M sodium hydroxide solution) and fluorescence was determined after 40 min (excitation: 360 nm and emission: 465 nm). All chemicals were purchased from Sigma-Aldrich (Milan, Italy).
HCD concentration in the in vitro experiment was calculated relative to the starting concentration. Elimination constant (ke) and elimination half-life were calculated based on a monophasic decay profile. Incremental area under the plasma concentration time curve (iAUC) was calculated using the trapezoidal method in the PK study. A normality check was performed using Shapiro-Wilk’s test. In case of normally distributed data, a mixed-effects model and Pearson correlation was used. Skewed data were analysed with Friedman tests and Spearman rank correlations. Values are presented as mean/median ± standard deviation/inter quartile range and 95% confidence intervals (95% CI). […]

[1] = cited from earlier work
[2] = tested on: serum carnosinase (CN1) enzyme; settings: cited from earlier work; for Substrate quality for the CN1 enzyme: ref 15-17; for Hydrolysis rate as % of carnosine's: several in vitro experiments
[3] = tested on: human peptide transporter 2 (PEPT2); parameters: method as in PMID 20067523; settings: ref 23; cited from earlier work
clinical = settings: both, human, plasma and urine, oral
Experimental: Plasma concentrations were described using a 1-compartmental model, with sequential zero- and first-order absorption and linear elimination. Cumulative urine concentrations were fitted simultaneously with plasma concentrations. Inter-occasion variability was also implemented and assumed to follow a lognormal distribution. Residual variability was described using a combined error model, consisting of an additive and a proportional component. The following covariates were tested: sex, age, weight, CN1 activity and dose. Model evaluation was done based on standard goodness-of-fit metrics (objective function value, standard errors) and plots.

[4] = parameters: method as in PMID 30449006; settings: ref 10; cited from earlier work
Sprague Dawley rats = tested on: Sprague Dawley rats
Experimental: Following treatment, a 2 week observation period with twice daily examination for morbidity and mortality was performed.

[5] = compared to carnosine and anserine; cited from earlier work
[6] = In vivo pharmacokinetic experiment: plasma and urine balenine after acute oral ingestion; parameters: species or system human; settings: for Urinary balenine excretion: urine up to 24 h; for Cmax: read-out: Cmax (peak plasma concentration)
Experimental: Six subjects (3 males and 3 females) participated in this PK study in which three increasing doses were tested. For the third dose, […] was replaced, due to pregnancy, by […] with similar CN1 activity. […] This means that half of the dose was administered as 5 mg/kg (weight-relative part) and the other half was an absolute dose based on the mean weight of the subjects of the third test day (341 mg; fixed part).
The day before a test day, subjects were asked to refrain from meat and fish. Upon arrival, a catheter was inserted in an antecubital vein and a fasted ethylenediaminetetraacetic acid (EDTA, 4 mL) and serum sample (3.5 mL, to determine CN1 activity) were collected. […] The following 2 h, every 30 min an EDTA blood sample was taken. Then after 3, 4, 5, 8 and 24 h, another sample was withdrawn. Urine was collected after 150 min, 5, 8 and 24 h. The subjects arrived in the lab and remained fasted until 2 h after ingesting the supplement. Subjects remained in the lab until the post 8 h blood sample, and returned the following morning for the post 24 h sample. Throughout the test day, food intake was standardized (lacto-ovo-vegetarian diet) ensuring minimal HCD intake for 24 h following supplement. Figure 5 gives a schematic overview of a test day.
Plasma samples were collected in pre-cooled (4 °C) EDTA tubes. Upon withdrawal, plasma was immediately deproteinized with 1:11 SSA, centrifuged (5 min, 16 000 g) and stored at − 20 °C.
as §1, §2, §3
CN1 activity was quantified by fluorometric determination of histidine following carnosine addition (based on Teufel et al., 2003).

[7] = 20 µM added to heparin plasma, 37 °C
[8] = 20 µM added to human heparin plasma, 37 °C, 6 subjects
[9] = both sexes, 20 µM added to human heparin plasma, 37 °C, 6 subjects, read-out: Half-life in plasma
[10] = in vitro human heparin plasma, factor ×, not significant

NCCC(=O)N[C@@H](Cc1cnc[nH]1)C(=O)O [carnosine, β-alanyl-L-histidine, reference compound]
Time after which undetectable in plasma (CN1 enzyme; [7]): 5 min | Half-life in plasma (CN1 enzyme; [8]): 1 min | half-life at 20 µM (CN1 enzyme; [9]): 1.2 ± 0.36 min | Plasma concentration change after ingestion ([1]; 60 mg/kg bodyweight, only in people with low CN1 activity): small increase | Plasma level after ingestion ([1]; highest dose of 20 mg/kg oral, human): barely measurable | Substrate quality for the CN1 enzyme [2]: good

NCCC(=O)NC(CO)Cc1cnc[nH]1 (stereo not drawn) [carnosinol, reference compound]
Resistance to CN1 ([2]; ref 29): resistant to CN1

Cn1cncc1C[C@H](NC(=O)CCN)C(=O)O [anserine, β-alanyl-N(π)-methyl-L-histidine, reference compound]
Time after which undetectable in plasma (CN1 enzyme; [7]): 15 min | Half-life in plasma (CN1 enzyme; [8]): 2 min | half-life at 20 µM (CN1 enzyme; [9]): 2.14 ± 0.58 min | Elimination constant ke: factor difference between carnosine and anserine (CN1 enzyme; [10]): 1.8 | Cmax ([1]; 4 mg/kg oral, human): 0.54 µM | Cmax ([1]; 10 mg/kg oral, human): 1.1 µM | Plasma iAUC ([1]; 10 mg/kg oral, human): 66.7 µM·min | Dose-dependent peak plasma concentrations after ingestion ([1]; human): 0.5 to 3.1 µM | Average excreted percentage of the dose in urine (intact) ([1]; n = 7): 6.3% | Affinity for PEPT2 [3]: high-affinity ligand | Substrate quality for the CN1 enzyme [2]: intermediate | Hydrolysis rate as % of carnosine's [2]: 30–50%

Cn1cnc(CC(NC(=O)CCN)C(=O)O)c1 [balenine, β-alanyl-N(τ)-methyl-L-histidine]
Vd (clinical): 126 L | clearance (clinical): 327 mL/min | half-life (clinical): 12 min | Ability to quench reactive aldehydes such as HNE and acrolein [4]: lacks the ability to quench reactive aldehydes | Pathological changes, morbidity and mortality (Sprague Dawley rats; female Sprague Dawley rats, acute increasing doses up to 2000 mg/kg, 2 week observation): No pathological changes were observed in any animal | Dose concluded safe (Sprague Dawley rats; female, Sprague Dawley, rat, in vivo, 2 weeks): 2000 mg/kg | Duration of zero-order input (dT1) (1 and 4 mg/kg doses, shorter for 10 mg/kg): 1.13 h | Absorption constant (ka) (first-order absorption, fixed to last estimated value): 3.48 h⁻¹ | Fraction excreted in urine (pu) (population estimate): 0.56 | Antioxidant and iron-chelating capacity [5]: higher antioxidant and iron-chelating capacity than carnosine and anserine | Time remaining elevated above LOQ in plasma (CN1 enzyme; 20 µM added to heparin plasma, 37 °C, LOQ 0.05 µM): up to 5 h | half-life at 20 µM (CN1 enzyme; [9]): 34.9 ± 14.6 min | half-life at 20 µM (CN1 enzyme; in vitro, read-out: Half-life in plasma with the highest CN1 activity): 15 min | Half-life in plasma with the lowest CN1 activity relative to highest (CN1 enzyme; in vitro): threefold higher half-life | Elimination rate constant relative to carnosine (CN1 enzyme; in vitro human heparin plasma): 3.86% | Elimination constant ke: factor lower for balenine compared to carnosine (CN1 enzyme; in vitro human heparin plasma, factor ×): 25.9 | Elimination constant ke: factor difference between balenine and anserine (CN1 enzyme; [10]): 14.0 | Substrate quality for the CN1 enzyme [2]: poor | Rate of hydrolysis relative to carnosine ([2]; ref 15): 8% | Rate of hydrolysis relative to carnosine ([2]; ref 16): 3.81% | Hydrolysis rate as % of carnosine's [2]: 5–20% | Urinary excretion as % of the ingested dose ([6]; 1 mg/kg oral): 27.3% | Urinary balenine excretion ([6]; 1 mg/kg oral): 19.3 ± 13.1 mg | Time plasma balenine remained significantly increased ([6]; 4 mg/kg oral): up to 3 h | Urinary excretion as % of the ingested dose ([6]; 4 mg/kg oral): 29.7% | Urinary balenine excretion ([6]; 4 mg/kg oral): 82.0 ± 40.5 mg | Cmax of balenine relative to anserine at the same dose ([6]; 10 mg/kg oral): 25.9 fold | Plasma iAUC of balenine relative to anserine ([6]; 10 mg/kg oral): 136 fold | Time plasma balenine remained significantly increased ([6]; 10 mg/kg oral): up to 8 h | Urinary excretion as % of the ingested dose ([6]; 10 mg/kg oral): 25.2% | Cmax ([6]; 10 mg/kg oral (fragmented dose), human, n = 6): 28 µM | Plasma iAUC ([6]; 10 mg/kg oral, human): 8960 µM·min | Urinary balenine excretion ([6]; 10 mg/kg oral): 176 ± 95.9 mg | Average excreted percentage of the dose in urine (intact) ([6]; average over doses, n = 6): 27.4% | Cmax ([6]; both sexes, human, plasma, po, 1 mg/kg, 1 mg/kg oral, human, n = 6): 1.6 ± 0.5 µM | Cmax ([6]; both sexes, human, plasma, po, 4 mg/kg, 4 mg/kg oral, human, n = 6): 7.1 ± 1.2 µM | Cmax ([6]; both sexes, human, plasma, po, 10 mg/kg, 10 mg/kg oral (fragmented dose), human, n = 6): 28.2 ± 7.4 µM | Cmax ratio 4 mg/kg vs 1 mg/kg ([6]; oral, human): 4.4 times | Cmax ratio 10 mg/kg vs 1 mg/kg ([6]; oral, human): 17.6 fold and 18 fold | Cmax ratio 10 mg/kg vs 4 mg/kg ([6]; oral, human): 4 times | Urinary excretion after 1 mg/kg: times lower than after 4 mg/kg ([6]; oral, human): 4 times | iAUC ratio 4 mg/kg vs 1 mg/kg ([6]; oral, human): 3.8 times | iAUC ratio 10 mg/kg vs 1 mg/kg ([6]; oral, human): 14.2 fold | iAUC ratio 10 mg/kg vs 4 mg/kg ([6]; oral, human): 3.7 times

— paper PMC10119279 (Scientific Reports, 2023)
